EP4810052A2, “HCRHR2 SELECTIVE POLYPEPTIDES” (Gubra A/S, priority 2023, dated 2026)
Starred links: 1 amine or outer side, 2 acyl side, 3 side chain; linkers in the order of their positions; H or OH if unused. Non-standard residues stand in square brackets, D forms with d. Residues, ends and D or L forms follow the SMILES beside them. Groups on a side chain read outwards from the residue. *: point of attachment. C20 diacid = O=C(O)CCCCCCCCCCCCCCCCCCC(=O)*; γGlu = O=C(O)[C@H](CCC(=O)[*:2])N[*:1]; Nle = CCCC[C@H](N)C(=O)O; AEEA = NCCOCCOCC(=O)O

Assays:
[1] = biological target: T1, hCRHR2 (Homo sapiens, UniProt Q13324); assay: HTRF cAMP assay, determination of hCRHR2 potency (peptide libraries 5 conc., purified peptides 11 conc.); format: cell-based; settings: library peptides; matched molecular pairs L vs Nle in position X^38; read-out: Potency hCRHR2 pEC50 (converted)
T1 sequence (Q13324 1-411): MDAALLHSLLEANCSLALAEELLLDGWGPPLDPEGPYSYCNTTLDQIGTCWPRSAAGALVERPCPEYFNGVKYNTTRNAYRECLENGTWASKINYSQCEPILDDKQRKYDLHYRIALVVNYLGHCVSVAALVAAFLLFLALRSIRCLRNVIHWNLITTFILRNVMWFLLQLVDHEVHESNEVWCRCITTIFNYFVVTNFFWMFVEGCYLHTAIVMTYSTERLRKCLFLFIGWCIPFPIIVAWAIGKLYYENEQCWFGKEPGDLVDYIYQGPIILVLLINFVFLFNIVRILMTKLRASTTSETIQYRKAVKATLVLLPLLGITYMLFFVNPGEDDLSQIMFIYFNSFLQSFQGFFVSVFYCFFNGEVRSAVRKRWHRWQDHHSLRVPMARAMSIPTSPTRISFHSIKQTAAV
In short: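 CHO-K1 cells stably expressing human CRHR2 were thawed from frozen stocks immediately before use and assayed in suspension with agonist peptides. cAMP was measured by time-resolved FRET in a competitive immunoassay between cryptate-labelled anti-cAMP antibody and d2-labelled cAMP. EC50 values came from nonlinear regression, sigmoid variable-slope fit.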

[2] = biological target: T2, hCRHR1 (Homo sapiens, UniProt P34998); assay: HTRF cAMP assay, determination of hCRHR1 potency (peptide libraries 5 conc., purified peptides 11 conc.); format: cell-based; settings: library peptides; matched molecular pairs L vs Nle in position X^38; read-out: Potency hCRHR1 pEC50 (converted)
T2 sequence (P34998 24-415): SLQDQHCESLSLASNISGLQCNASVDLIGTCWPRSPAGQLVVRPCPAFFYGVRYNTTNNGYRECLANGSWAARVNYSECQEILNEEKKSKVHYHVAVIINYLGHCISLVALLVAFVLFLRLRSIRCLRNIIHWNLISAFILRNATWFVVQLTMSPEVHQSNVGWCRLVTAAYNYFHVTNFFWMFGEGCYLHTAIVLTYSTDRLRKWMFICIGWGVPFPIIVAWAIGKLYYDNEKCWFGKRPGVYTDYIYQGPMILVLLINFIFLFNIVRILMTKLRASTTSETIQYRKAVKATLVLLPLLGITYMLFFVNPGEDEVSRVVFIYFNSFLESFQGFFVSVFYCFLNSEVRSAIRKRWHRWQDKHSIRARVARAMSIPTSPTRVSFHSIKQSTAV
In short: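 CHO-K1 cells stably expressing human CRHR1, thawed from frozen stocks just before use, were stimulated in suspension with agonist peptides. cAMP was measured by HTRF competitive immunoassay (cryptate anti-cAMP antibody vs d2-cAMP).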

Row | Structure (SMILES) | EC50 [1] [nM] | EC50 [2] [nM]
1 | CC[C@H](C)[C@H](N)C(=O)N[C@H](C(=O)N[C@@H](CC(C)C)C(=O)N[C@@H](CO)C(=O)N[C@@H](CC(C)C)C(=O)N[C@@H](CC(=O)O)C(=O)N[C@H](C(=O)N1CCC[C@H]1C(=O)N[C@H](C(=O)NCC(=O)N[C@@H](CC(C)C)C(=O)N[C@@H](CC(C)C)C(=O)N[C@@H](CCC(N)=O)C(=O)N[C@H](C(=O)N[C@@H](CC(C)C)C(=O)N[C@@H](CC(C)C)C(=O)N[C@@H](CCC(=O)O)C(=O)N[C@@H](CCC(N)=O)C(=O)N[C@@H](C)C(=O)N[C@@H](CCCNC(=N)N)C(=O)N[C@@H](C)C(=O)N[C@@H](CCCNC(=N)N)C(=O)N[C@@H](CCC(N)=O)C(=O)N[C@@H](C)C(=O)N[C@@H](CCCNC(=N)N)C(=O)N[C@@H](CCC(=O)O)C(=O)N[C@@H](CCC(N)=O)C(=O)N[C@@H](C)C(=O)N[C@@H](CCCCNC(=O)COCCOCCNC(=O)COCCOCCNC(=O)CC[C@H](NC(=O)CC[C@H](NC(=O)CCCCCCCCCCCCCCCCCCC(=O)O)C(=O)O)C(=O)O)C(=O)N[C@H](C(=O)N[C@@H](CC(N)=O)C(=O)N[C@@H](C)C(=O)N[C@@H](CCC(=O)O)C(=O)N[C@H](C(=O)N[C@@H](CC(C)C)C(=O)N[C@@H](C)C(=O)N[C@@H](CCC(=O)O)C(=O)N[C@H](C(N)=O)C(C)C)[C@@H](C)CC)[C@@H](C)O)[C@@H](C)CC)[C@@H](C)CC)C(C)C)C(C)C [compound 52] (H-IVLSLDVPIGLLQILLEQARARQAREQAK([AEEA-AEEA-γGlu-γGlu-C20 diacid])TNAEILAEV-NH2) | 0.631 | 1580
2 | CCCC[C@H](NC(=O)[C@@H](NC(=O)[C@H](CCC(=O)O)NC(=O)[C@H](C)NC(=O)[C@H](CC(N)=O)NC(=O)[C@@H](NC(=O)[C@H](CCCCNC(=O)COCCOCCNC(=O)COCCOCCNC(=O)CC[C@H](NC(=O)CC[C@H](NC(=O)CCCCCCCCCCCCCCCCCCC(=O)O)C(=O)O)C(=O)O)NC(=O)[C@H](C)NC(=O)[C@H](CCC(N)=O)NC(=O)[C@H](CCC(=O)O)NC(=O)[C@H](CCCNC(=N)N)NC(=O)[C@H](C)NC(=O)[C@H](CCC(N)=O)NC(=O)[C@H](CCCNC(=N)N)NC(=O)[C@H](C)NC(=O)[C@H](CCCNC(=N)N)NC(=O)[C@H](C)NC(=O)[C@H](CCC(N)=O)NC(=O)[C@H](CCC(=O)O)NC(=O)[C@H](CC(C)C)NC(=O)[C@H](CC(C)C)NC(=O)[C@@H](NC(=O)[C@H](CCC(N)=O)NC(=O)[C@H](CC(C)C)NC(=O)[C@H](CC(C)C)NC(=O)CNC(=O)[C@@H](NC(=O)[C@@H]1CCCN1C(=O)[C@@H](NC(=O)[C@H](CC(=O)O)NC(=O)[C@H](CC(C)C)NC(=O)[C@H](CO)NC(=O)[C@H](CC(C)C)NC(=O)[C@@H](NC(=O)[C@@H](N)[C@@H](C)CC)C(C)C)C(C)C)[C@@H](C)CC)[C@@H](C)CC)[C@@H](C)O)[C@@H](C)CC)C(=O)N[C@@H](C)C(=O)N[C@@H](CCC(=O)O)C(=O)N[C@H](C(N)=O)C(C)C [compound 53] (H-IVLSLDVPIGLLQILLEQARARQAREQAK([AEEA-AEEA-γGlu-γGlu-C20 diacid])TNAEI[Nle]AEV-NH2) | 0.316 | 251
3 | CC[C@H](C)[C@H](N)C(=O)N[C@H](C(=O)N[C@@H](CC(C)C)C(=O)N[C@@H](CO)C(=O)N[C@@H](CC(C)C)C(=O)N[C@@H](CC(=O)O)C(=O)N[C@H](C(=O)N1CCC[C@H]1C(=O)N[C@H](C(=O)NCC(=O)N[C@@H](CC(C)C)C(=O)N[C@@H](CC(C)C)C(=O)N[C@@H](CCC(N)=O)C(=O)N[C@H](C(=O)N[C@@H](CC(C)C)C(=O)N[C@@H](CC(C)C)C(=O)N[C@@H](CCC(=O)O)C(=O)N[C@@H](CCC(N)=O)C(=O)N[C@@H](C)C(=O)N[C@@H](CCCNC(=N)N)C(=O)N[C@@H](C)C(=O)N[C@@H](CCC(N)=O)C(=O)N[C@@H](C)C(=O)N[C@@H](C)C(=O)N[C@@H](CCCNC(=N)N)C(=O)N[C@@H](CCC(N)=O)C(=O)N[C@@H](CCC(N)=O)C(=O)N[C@@H](C)C(=O)N[C@@H](CCCCNC(=O)COCCOCCNC(=O)COCCOCCNC(=O)CC[C@H](NC(=O)CC[C@H](NC(=O)CCCCCCCCCCCCCCCCCCC(=O)O)C(=O)O)C(=O)O)C(=O)N[C@H](C(=O)N[C@@H](CC(N)=O)C(=O)N[C@@H](C)C(=O)N[C@@H](CCC(=O)O)C(=O)N[C@H](C(=O)N[C@@H](CC(C)C)C(=O)N[C@@H](C)C(=O)N[C@@H](CCC(=O)O)C(=O)N[C@H](C(N)=O)C(C)C)[C@@H](C)CC)[C@@H](C)O)[C@@H](C)CC)[C@@H](C)CC)C(C)C)C(C)C [compound 54] (H-IVLSLDVPIGLLQILLEQARAQAARQQAK([AEEA-AEEA-γGlu-γGlu-C20 diacid])TNAEILAEV-NH2) | 0.398 | 20000
4 | CCCC[C@H](NC(=O)[C@@H](NC(=O)[C@H](CCC(=O)O)NC(=O)[C@H](C)NC(=O)[C@H](CC(N)=O)NC(=O)[C@@H](NC(=O)[C@H](CCCCNC(=O)COCCOCCNC(=O)COCCOCCNC(=O)CC[C@H](NC(=O)CC[C@H](NC(=O)CCCCCCCCCCCCCCCCCCC(=O)O)C(=O)O)C(=O)O)NC(=O)[C@H](C)NC(=O)[C@H](CCC(N)=O)NC(=O)[C@H](CCC(N)=O)NC(=O)[C@H](CCCNC(=N)N)NC(=O)[C@H](C)NC(=O)[C@H](C)NC(=O)[C@H](CCC(N)=O)NC(=O)[C@H](C)NC(=O)[C@H](CCCNC(=N)N)NC(=O)[C@H](C)NC(=O)[C@H](CCC(N)=O)NC(=O)[C@H](CCC(=O)O)NC(=O)[C@H](CC(C)C)NC(=O)[C@H](CC(C)C)NC(=O)[C@@H](NC(=O)[C@H](CCC(N)=O)NC(=O)[C@H](CC(C)C)NC(=O)[C@H](CC(C)C)NC(=O)CNC(=O)[C@@H](NC(=O)[C@@H]1CCCN1C(=O)[C@@H](NC(=O)[C@H](CC(=O)O)NC(=O)[C@H](CC(C)C)NC(=O)[C@H](CO)NC(=O)[C@H](CC(C)C)NC(=O)[C@@H](NC(=O)[C@@H](N)[C@@H](C)CC)C(C)C)C(C)C)[C@@H](C)CC)[C@@H](C)CC)[C@@H](C)O)[C@@H](C)CC)C(=O)N[C@@H](C)C(=O)N[C@@H](CCC(=O)O)C(=O)N[C@H](C(N)=O)C(C)C [compound 55] (H-IVLSLDVPIGLLQILLEQARAQAARQQAK([AEEA-AEEA-γGlu-γGlu-C20 diacid])TNAEI[Nle]AEV-NH2) | 0.126 | 251
5 | CC[C@H](C)[C@H](N)C(=O)N[C@H](C(=O)N[C@@H](CC(C)C)C(=O)N[C@@H](CO)C(=O)N[C@@H](CC(C)C)C(=O)N[C@@H](CC(=O)O)C(=O)N[C@H](C(=O)N1CCC[C@H]1C(=O)N[C@H](C(=O)NCC(=O)N[C@@H](CC(C)C)C(=O)N[C@@H](CC(C)C)C(=O)N[C@@H](CCC(N)=O)C(=O)N[C@H](C(=O)N[C@@H](CC(C)C)C(=O)N[C@@H](CC(C)C)C(=O)N[C@@H](CCC(=O)O)C(=O)N[C@@H](CCC(N)=O)C(=O)N[C@@H](C)C(=O)N[C@@H](CCCNC(=N)N)C(=O)N[C@@H](C)C(=O)N[C@@H](CCCNC(=N)N)C(=O)N[C@@H](C)C(=O)N[C@@H](CCC(N)=O)C(=O)N[C@@H](CCCNC(=N)N)C(=O)N[C@@H](CCC(=O)O)C(=O)N[C@@H](CCC(N)=O)C(=O)N[C@@H](C)C(=O)N[C@@H](CCCCNC(=O)COCCOCCNC(=O)COCCOCCNC(=O)CC[C@H](NC(=O)CC[C@H](NC(=O)CCCCCCCCCCCCCCCCCCC(=O)O)C(=O)O)C(=O)O)C(=O)N[C@H](C(=O)N[C@@H](CC(N)=O)C(=O)N[C@@H](C)C(=O)N[C@@H](CCC(=O)O)C(=O)N[C@H](C(=O)N[C@@H](CC(C)C)C(=O)N[C@@H](C)C(=O)N[C@@H](CCC(=O)O)C(=O)N[C@H](C(N)=O)C(C)C)[C@@H](C)CC)[C@@H](C)O)[C@@H](C)CC)[C@@H](C)CC)C(C)C)C(C)C [compound 56] (H-IVLSLDVPIGLLQILLEQARARAQREQAK([AEEA-AEEA-γGlu-γGlu-C20 diacid])TNAEILAEV-NH2) | 0.398 | 3160
